Patent US20140051701A1, “METHODS OF TREATING A DISEASE OR CONDITION OF THE CENTRAL NERVOUS SYSTEM” (Bionomics Limited, priority 2011, published 2014)
“Also recorded” adds a separate entry of the source.

How the values were obtained:
[1] = test system: rat primary cortical neurons; test: Neurite outgrowth assay in cortical neuron culture; format: cell-based; conditions: for block of Compound 1-induced enhancement of neurite outgrowth by PLC inhibitor: inhibitor in combination with Compound 1; for effect on neurite outgrowth, substance alone: primary cortical neurons; for minimal effective concentration: Rattus norvegicus, Primary cortical neuron, 72 h, 3 days exposure of cortical neurons, read-out: concentration giving significant neurite outgrowth
Description: Female rats of 17 days gestation were killed by cervical dislocation and the foetuses were removed from the uterus. Their brains were placed in ice-cold medium of Leibovitz (L15, Gibco, Fisher bioblock, France). Cortex were dissected and meninges were carefully removed. The cortical neurons were dissociated by trypsinization for 30 min at 37° C. (trypsin-EDTA Gibco) in presence of 0.1 mg/ml DNAse I (Roche, France). The reaction was stopped by addition of in medium of Eagle modified by Dulbecco (DMEM; Gibco) with 10% of fetal bovine serum (FBS; Gibco). The suspension was triturated with a 10-ml pipette and using a needle syringe 21G and centrifuged at 350×g for 10 min at room temperature. The pellet of dissociated cells was resuspended in a medium consisting of Neurobasal (Gibco) supplemented with 2% B27 supplement (Gibco), 0.5 mM L-Glutamine (Gibco), an antibiotic-antimicotic mixture. Viable cells were counted in a Neubauer cytometer using the trypan blue exclusion test (Sigma). Cells were seeded on the basis of 30000 cells per Petri dish (ø35 mm, Nunc) precoated with poly-L-lysine.
Cells were allowed to adhere 2 h and maintained in a humidified incubator at 37° C. in 5% CO2-95% air atmosphere.
After neuronal adhesion (2 h after the plating), cultures were exposed to Compound 1 or BDNF for a period of 3 days.
After the 3 days exposure of the neurons to the test compounds, cultures were washed with phosphate-buffered saline (PBS, Gibco) and fixed using 2.5% glutaraldehyde in PBS. Several pictures (˜80) of neurons with neurites without any branching were taken per condition using a digital camera (Coolpix 995; Nikon) mounted on the microscope (Nikon, objective 40×). Neurites were outlined on computer screen using imaging software (Image-Pro Plus, France), which automatically calculates the length.
A global analysis of the data was performed using a one way analysis of variance (ANOVA), followed by Fisher's Protected Least Significant Difference when applicable. The level of significance was set to p<0.05. All results were expressed as mean±sem. N=˜180 cells
The compound of example 1h was tested at 0.1 nM, 1 nM, 10 nM, 100 nM and 1000 nM on two independent cultures comprising 2 Petri dishes per culture and per condition. In parallel, BDNF was tested at 50 ng/ml.

[2] = Non-precipitated withdrawal (physical dependence) after 14-day dosing; format: in vivo, rat; conditions: 14 days at 10, 30 and 100 mg/kg/day; 5 days post-treatment; versus no-drug group; listed as Compound 1
Excerpt: Sudden discontinuation of antidepressant medication may produce withdrawal effects caused by physical dependence on the drug. Compounds can be evaluated for physical dependence in a simple animal model where, following a period of chronic dosing (e.g., for 14-20 days), the study drug is stopped and measurements of food intake, body weight and body temperature are taken over the next 5 days. […] This model is suitable for detecting the effects across a broad range of drug classes including opiates, antidepressants and benzodiazepines. […]
Rats treated chronically (14-20 days) with opioids, benzodiazepines Or SSRIs display adverse physical effects after non-precipitated withdrawal of the drugs. The potential consequences of abrupt cessation of dosing with Compound 1 was assessed following 14 days of treatment at 0, 10, 30 and 100 mg/kg/day.

mouse = test: Mouse light dark box model; format: in vivo
Description: U73122 was then examined for an in vivo effect on the activity of Example 1 in the mouse light dark box. U73122 was given IP at 30 mg/kg, 120 minutes prior to testing. Compound 1 was dosed orally at 10 mg/kg, 60 minutes prior to testing. […] This experiment was repeated using the anxiolytic compound diazepam to determine whether the activity of U73122 was specific to Compound 1 (FIG. 5).

In the case of `S=C([S-])OC1CC2CC1C1CCCC21.[K+]` (centres unmarked) [Example D609, reference compound], the “block of Compound 1-induced enhancement of neurite outgrowth by PLC inhibitor” value [1] is reported as “blocked; also recorded: significant and dose-dependant reduction” and the “effect on neurite outgrowth, substance alone” value [1] is reported as “enhanced neurite outgrowth”.
For `CCOC(=O)c1cn(CC)c2ncc(NC(=O)C(C)C)cc2c1=O` [Example 7, Ethyl 6-(isobutyrylamide)-1-ethyl-1,4-dihydro-4-oxo-1,8-naphthyridine-3-carboxylate], the minimal effective concentration [1] was under 0.1 µM.
Work on `CCn1cc(C(=O)N2CCOCC2)c(=O)c2cc(N)cnc21` [Example 4, Morpholino 6-amino-1-ethyl-1,4-dihydro-4-oxo-1,8-naphthyridine-3-carboxamide] yielded a minimal effective concentration [1] of under 0.1 µM.
`CCOC(=O)c1cn(CC)c2ncc(NC3Cc4ccccc4C3)cc2c1=O` [Example 1g, Ethyl 6-(2,3-dihydro-1H-inden-2-ylamino)-1-ethyl-1,4-dihydro-4-oxo-1,8-naphthyridine-3-carboxylate] showed a minimal effective concentration [1] of under 0.1 µM.
With `CCOC(=O)c1cn(CC)c2ncc(N)cc2c1=O` [Example 1f, Ethyl 1-ethyl-1,4-dihydro-6-amino-4-oxo-1,8-naphthyridine-3-carboxylate] the minimal effective concentration [1] was under 0.1 µM.
`CCn1cc(C(=O)Nc2ccc(-c3ccccc3)cc2)c(=O)c2cc(NC3Cc4ccccc4C3)cnc21` [Example 6, 4-biphenylamino-6-(2,3-dihydro-1H-inden-2-ylamino)-1-ethyl-1,4-dihydro-4-oxo-1,8-naphthyridine-3-carboxamide] showed a minimal effective concentration [1] of under 0.1 µM.
`CCn1cc(C(=O)Nc2ccc(F)cc2)c(=O)c2cc(NC3Cc4ccccc4C3)cnc21` [Example 5, 4-fluorophenylamine 6-(2,3-dihydro-1H-inden-2-ylamino)-1-ethyl-1,4-dihydro-4-oxo-1,8-naphthyridine-3-carboxamide] showed a minimal effective concentration [1] of under 0.1 µM.
With `CCn1cc(C(=O)N2CCN(C)CC2)c(=O)c2cc(NC3Cc4ccccc4C3)cnc21` [Example 2, Methylpiperazino 6-(2,3-dihydro-1H-inden-2-ylamino)-1-ethyl-1,4-dihydro-4-oxo-1,8-naphthyridine-3-carboxamide] the minimal effective concentration [1] was under 0.1 µM.
In the case of `CCn1cc(C(=O)N2CCOCC2)c(=O)c2cc(NC3Cc4ccccc4C3)cnc21` [Example 1h], the “changes in body temperature, weight gain or food consumption after withdrawal” value [2] is reported as “does not produce signs of withdrawal; also recorded: did not produce significant changes”, the anxiolytic activity (mouse; 10 mg/kg orally, 60 minutes prior to testing) is reported as “robust anxiolytic activity” and the minimal effective concentration [1] is reported as under 0.1 µM. For the same molecule, the “effect on neurite outgrowth, substance alone” value [1] was “enhancement of neurite outgrowth”.
With `COc1ccc2c(c1)CC[C@@H]1[C@@H]2CC[C@]2(C)[C@@H](NCCCCCCN3C(=O)C=CC3=O)CC[C@@H]12` [Example U73122, reference compound] the “effect on anxiolytic activity of Compound 1” value (mouse; U73122 30 mg/kg IP in combination with 10 mg/kg p.o. Compound 1) was “blocks; also recorded: fully blocked the anxiolytic effect”, the “effect on the Time, Entries or Distance parameters, alone” value (mouse; U73122 30 mg/kg IP, 120 minutes prior to testing) was “did not have any effect” and the “effect on the animals' responses to diazepam” value (mouse; U73122 30 mg/kg i.p. with diazepam 1 mg/kg p.o.) was “did not cause any change”. The “block of Compound 1 activity on neurite outgrowth” value ([1]; U73122 at 1 μM, Compound 1 10 nM) was “significant block”, the “concentration at which full block of Compound 1 activity occurs” value ([1]; U73122 tested over 30 nM to 1 μM with Compound 1 10 nM) was 100 nM and the “block of Compound 1-induced enhancement of neurite outgrowth by PLC inhibitor” value [1] was “blocked; also recorded: dose-related block”.
Molecule `CCn1cc(C(=O)NC2CC2)c(=O)c2cc(NC3Cc4ccccc4C3)cnc21` [Example 3, Cyclopropylamino 6-(2,3-dihydro-1H-inden-2-ylamino)-1-ethyl-1,4-dihydro-4-oxo-1,8-naphthyridine-3-carboxamide] has a minimal effective concentration [1] of under 0.1 µM.
